Data as given in the supplement of paper PMC10627819.

What was measured:
Assay in all cases: Bliss interaction score (quartile over a dose matrix) (fitness difference); higher = more antagonism (negative = synergy)
S. aureus Newman = test system: S. aureus Newman
Outline: (§1)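 Each OD595 reading at entry into stationary phase was scaled to the robust mean of the untreated wells on its plate, with a ceiling of 1. These ratios define fitness, and single-drug fitness was inferred from combinations. The Bliss score compares observed fitness with the product-based expectation and is reported as quartiles across all replicate types, technical, biological and donor/recipient.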

S. aureus DSM 20231 = test system: S. aureus DSM 20231
Outline: as §1

B. subtilis 168 = test system: B. subtilis 168
Outline: as §1

S. pneumoniae D39V = test system: S. pneumoniae D39V
Outline: as §1
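Further: first quartile when negative (synergy) and third quartile when positive (antagonism).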

Compound	Bliss interaction score (S. aureus Newman)	Bliss interaction score (S. aureus DSM 20231)	Bliss interaction score (B. subtilis 168)	Bliss interaction score (S. pneumoniae D39V)	Bliss interaction score (S. aureus Newman; main component drawn)	Bliss interaction score (S. aureus DSM 20231; main component drawn)	Bliss interaction score (B. subtilis 168; main component drawn)	Bliss interaction score (S. pneumoniae D39V; main component drawn)
O=C(N[C@H](CO)[C@H](O)c1ccc([N+](=O)[O-])cc1)C(Cl)Cl [Chloramphenicol] + C[C@H]1c2cccc(O)c2C(=O)C2=C(O)[C@]3(O)C(=O)C(C(N)=O)=C(O)[C@@H](N(C)C)[C@@H]3[C@@H](O)[C@@H]21 [Doxycycline]	0.0197	0.0395	-0.0915	-0.06				
O=C(N[C@H](CO)[C@H](O)c1ccc([N+](=O)[O-])cc1)C(Cl)Cl [Chloramphenicol] + Clc1ccc(COC(Cn2ccnc2)c2ccc(Cl)cc2Cl)c(Cl)c1 [Miconazole]	0.0868	0.0813	0.0615	0.0799				
O=C(N[C@H](CO)[C@H](O)c1ccc([N+](=O)[O-])cc1)C(Cl)Cl [Chloramphenicol] + N[C@@H]1CONC1=O [CycloserineD]	-0.144	-0.168	0.0478	0.141				
O=C(N[C@H](CO)[C@H](O)c1ccc([N+](=O)[O-])cc1)C(Cl)Cl [Chloramphenicol] + O=C(O)[C@H]1/C(=C/CO)O[C@@H]2CC(=O)N21 [Clavulanic]	0.202	-0.265	0.0981	-0.0693				
O=C(N[C@H](CO)[C@H](O)c1ccc([N+](=O)[O-])cc1)C(Cl)Cl [Chloramphenicol] + Oc1cc(Cl)ccc1Oc1ccc(Cl)cc1Cl [Triclosan]	0.0302	-0.0764	-0.0443	0.0444				
CC[C@H]1OC(=O)[C@H](C)[C@@H](O[C@H]2C[C@@](C)(OC)[C@@H](O)[C@H](C)O2)[C@H](C)[C@@H](O[C@@H]2O[C@H](C)C[C@H](N(C)C)[C@H]2O)[C@](C)(OC)C[C@@H](C)C(=O)[C@H](C)[C@@H](O)[C@]1(C)O [Clarithromycin] + CC1(C)S[C@@H]2[C@H](NC(=O)Cc3ccccc3)C(=O)N2[C@H]1C(=O)O [PenicillinG]	-0.0938	-0.0458	0.0431	-0.0413				
CC[C@H]1OC(=O)[C@H](C)[C@@H](O[C@H]2C[C@@](C)(OC)[C@@H](O)[C@H](C)O2)[C@H](C)[C@@H](O[C@@H]2O[C@H](C)C[C@H](N(C)C)[C@H]2O)[C@](C)(OC)C[C@@H](C)C(=O)[C@H](C)[C@@H](O)[C@]1(C)O [Clarithromycin] + CC(=O)O[C@H]1C[C@@]2(C)[C@@H](C[C@@H](O)[C@H]3[C@@]4(C)CC[C@@H](O)[C@@H](C)[C@@H]4CC[C@@]32C)/C1=C(\CCC=C(C)C)C(=O)O [Fusidic acid]	0.0229	0.0257	-0.059	-0.0728				
CC[C@H]1OC(=O)[C@H](C)[C@@H](O[C@H]2C[C@@](C)(OC)[C@@H](O)[C@H](C)O2)[C@H](C)[C@@H](O[C@@H]2O[C@H](C)C[C@H](N(C)C)[C@H]2O)[C@](C)(OC)C[C@@H](C)C(=O)[C@H](C)[C@@H](O)[C@]1(C)O [Clarithromycin] + CCCCCCCCCC(=O)N[C@@H]1[C@H]([C@@H]([C@H](O[C@H]1OC2=C3C=C4C=C2OC5=C(C=C(C=C5)[C@H]([C@H]6C(=O)N[C@@H](C7=C(C(=CC(=C7)O)OC8[C@H]([C@H]([C@@H]([C@H](O8)CO)O)O)O)C9=C(C=CC(=C9)[C@H](C(=O)N6)NC(=O)[C@@H]4NC(=O)[C@@H]1C2=CC(=CC(=C2)OC2=C(C=CC(=C2)[C@H](C(=O)N[C@H](CC2=CC(=C(O3)C=C2)Cl)C(=O)N1)N)O)O)O)C(=O)O)O[C@H]1[C@@H]([C@H]([C@@H]([C@H](O1)CO)O)O)NC(=O)C)Cl)CO)O)O [Teicoplanin]					0.173	0.099	0.0401	-0.0509
CC[C@H]1OC(=O)[C@H](C)[C@@H](O[C@H]2C[C@@](C)(OC)[C@@H](O)[C@H](C)O2)[C@H](C)[C@@H](O[C@@H]2O[C@H](C)C[C@H](N(C)C)[C@H]2O)[C@](C)(OC)C[C@@H](C)C(=O)[C@H](C)[C@@H](O)[C@]1(C)O [Clarithromycin] + CCC[C@@H]1C[C@@H](C(=O)N[C@@H]([C@H]2O[C@H](SC)[C@H](O)[C@@H](O)[C@H]2O)[C@H](C)Cl)N(C)C1 [Clindamycin]	-0.066	-0.0458	0.0458	0.0678				
CC[C@H]1OC(=O)[C@H](C)[C@@H](O[C@H]2C[C@@](C)(OC)[C@@H](O)[C@H](C)O2)[C@H](C)[C@@H](O[C@@H]2O[C@H](C)C[C@H](N(C)C)[C@H]2O)[C@](C)(OC)C[C@@H](C)C(=O)[C@H](C)[C@@H](O)[C@]1(C)O [Clarithromycin] + CC[C@H]1OC(=O)[C@H](C)C(=O)[C@H](C)[C@@H](O[C@@H]2O[C@H](C)C[C@H](N(C)C)[C@H]2O)[C@](C)(OC)C[C@@H](C)C(=O)[C@H](C)[C@H]2N(CCCCn3cnc(-c4cccnc4)c3)C(=O)O[C@]12C [Telithromycin]	-0.0507	-0.0599	0.0309	0.056				
CC[C@H]1OC(=O)[C@H](C)[C@@H](O[C@H]2C[C@@](C)(OC)[C@@H](O)[C@H](C)O2)[C@H](C)[C@@H](O[C@@H]2O[C@H](C)C[C@H](N(C)C)[C@H]2O)[C@](C)(OC)C[C@@H](C)C(=O)[C@H](C)[C@@H](O)[C@]1(C)O [Clarithromycin] + CC[C@H]1OC(=O)[C@H](C)[C@@H](O[C@H]2C[C@@](C)(OC)[C@@H](O)[C@H](C)O2)[C@H](C)[C@@H](O[C@@H]2O[C@H](C)C[C@H](N(C)C)[C@H]2O)[C@](C)(O)C[C@@H](C)C(=O)[C@H](C)[C@@H](O)[C@]1(C)O [Erythromycin]	-0.0296	0.0159	-0.0372	0.0551				
CC[C@H]1OC(=O)[C@H](C)[C@@H](O[C@H]2C[C@@](C)(OC)[C@@H](O)[C@H](C)O2)[C@H](C)[C@@H](O[C@@H]2O[C@H](C)C[C@H](N(C)C)[C@H]2O)[C@](C)(OC)C[C@@H](C)C(=O)[C@H](C)[C@@H](O)[C@]1(C)O [Clarithromycin] + CN(C)[C@@H]1C(O)=C(C(N)=O)C(=O)[C@@]2(O)C(O)=C3C(=O)c4c(O)ccc(Cl)c4[C@@](C)(O)[C@H]3C[C@@H]12 [Clortetracycline]	-0.094	-0.28	-0.392	0.0391				
CC[C@H]1OC(=O)[C@H](C)[C@@H](O[C@H]2C[C@@](C)(OC)[C@@H](O)[C@H](C)O2)[C@H](C)[C@@H](O[C@@H]2O[C@H](C)C[C@H](N(C)C)[C@H]2O)[C@](C)(OC)C[C@@H](C)C(=O)[C@H](C)[C@@H](O)[C@]1(C)O [Clarithromycin] + CN[C@H](CC(C)C)C(=O)N[C@H]1C(=O)N[C@@H](CC(N)=O)C(=O)N[C@H]2C(=O)N[C@H]3C(=O)N[C@H](C(=O)N[C@H](C(=O)O)c4cc(O)cc(O)c4-c4cc3ccc4O)[C@H](O[C@H]3C[C@](C)(N)[C@@H](O)[C@H](C)O3)c3ccc(c(Cl)c3)Oc3cc2cc(c3O[C@@H]2O[C@H](CO)[C@@H](O)[C@H](O)[C@H]2O[C@H]2C[C@](C)(NCc3ccc(-c4ccc(Cl)cc4)cc3)[C@@H](O)[C@H](C)O2)Oc2ccc(cc2Cl)[C@H]1O [Oritavancin]	-0.0471	-0.0389	0.0293	0.0635				
CC[C@H]1OC(=O)[C@H](C)[C@@H](O[C@H]2C[C@@](C)(OC)[C@@H](O)[C@H](C)O2)[C@H](C)[C@@H](O[C@@H]2O[C@H](C)C[C@H](N(C)C)[C@H]2O)[C@](C)(OC)C[C@@H](C)C(=O)[C@H](C)[C@@H](O)[C@]1(C)O [Clarithromycin] + CO[C@@H]1[C@@H](OC(N)=O)[C@@H](O)[C@H](Oc2ccc3c(O)c(NC(=O)c4ccc(O)c(CC=C(C)C)c4)c(=O)oc3c2C)OC1(C)C [Novobiocin]	0.0643	-0.0522	0.125	-0.0569				
CC[C@H]1OC(=O)[C@H](C)[C@@H](O[C@H]2C[C@@](C)(OC)[C@@H](O)[C@H](C)O2)[C@H](C)[C@@H](O[C@@H]2O[C@H](C)C[C@H](N(C)C)[C@H]2O)[C@](C)(OC)C[C@@H](C)C(=O)[C@H](C)[C@@H](O)[C@]1(C)O [Clarithromycin] + CO[C@@]12[C@H](COC(N)=O)C3=C(C(=O)C(C)=C(N)C3=O)N1C[C@@H]1N[C@@H]12 [MitomycinC]	0.0537	-0.0723	0.036	-0.0527				
CC[C@H]1OC(=O)[C@H](C)[C@@H](O[C@H]2C[C@@](C)(OC)[C@@H](O)[C@H](C)O2)[C@H](C)[C@@H](O[C@@H]2O[C@H](C)C[C@H](N(C)C)[C@H]2O)[C@](C)(OC)C[C@@H](C)C(=O)[C@H](C)[C@@H](O)[C@]1(C)O [Clarithromycin] + COc1cc(Cc2cnc(N)nc2N)cc(OC)c1OC [Trimethoprim]	0.0667	0.0723	-0.193	-0.0331				
